Results on 14 compounds are retold here after patent US20150191445A1, “ACYL-HYDRAZONE AND OXADIAZOLE COMPOUNDS, PHARMACEUTICAL COMPOSITIONS CONTAINING THE SAME AND USES THEREOF” (Universidade Federal de Santa Catarina, priority 2011, published 2015).

A word on the pIC50: it is the negative decadic logarithm of the IC50, by convention in mol/L. As a reminder, the melting point is the temperature of the solid-liquid transition.

pIC50: −log10 of the molar value. “Also recorded” adds a separate entry of the source.

Series [1] addresses Trypanosoma cruzi cruzain (Trypanosoma cruzi, UniProt P25779). As to conditions: cited from earlier work.
In the next series the test system is Jurkat cells. The series is described as follows: MTT cytotoxicity assay, Jurkat cell line. As to conditions: 48 h of treatment, read-out: IC50 T (Jurkat). In kind it is cell-based, human. The procedure: (§1) All compounds were resuspended in DMSO at stock concentration of 20 mM and stored at −20° C. For cytotoxicity testing, the dilutions from the stock solutions were made in culture medium (RPMI-1640 plus 10% of fetal bovine serum, 100 IU/ml penicillin and 100 µg/mL Streptomycin), immediately before being discharged to the cells.
(§2) The REH and Jurkat cell lines were maintained in
(§3) RPMI-1640 medium with 10% FBS (fetal bovine serum), 100 IU/mL penicillin, 100 µg/mL streptomycin and incubated at 37° C. and 5% CO2. Cytotoxicity assays were performed according to the method described in the literature (Pieters, R.; et al. In vitro drug sensitivity of cells from children with leukemia using the MTT assay with improved culture conditions. Blood, 1990, 76, 2327-2336; Pieters, R.; et al. Relation of cellular drug resistance to long-term clinical outcome in childhood acute lymphoblastic leukaemia. Lancet, 1991, 338, 399-403 e Kaspers, G. J.; et al. In vitro cellular drug resistance and prognosis in newly diagnosed childhood acute lymphoblastic leukemia. Blood, 1997, 90, 2723). Cells were resuspended at a concentration of 3.75 10^5 cells/mL in culture medium as described. Eighty microliters of this suspension were seeded into plates with 96 round-bottom wells, containing 20 microliters of different concentrations of compound or vehicle alone. Each treatment was done in triplicate. After 48 hours of incubation at 37° C. and 5% CO2, 20 μL of MTT solution was added (5 mg/mL of 1x PBS), followed by further incubation for 4 hours and 30 minutes at 37° C. and 5% CO2. During these 4 hours and 30 minutes, MTT (yellowish) is metabolized to formazan salt (bluish in color) by living cells. After this, 100 μL sodium dodecyl sulphate (SDS) 10%+0.1M of HCl were added to dissolve the formazan crystals. After incubating overnight, absorbance reading at 570 nm was carried out. The percentage of cells surviving the treatment were calculated relative to the number of surviving cells in the medium without addition of the compounds in question (“negative control”).
(§4) c) Determination of IC: IC50 is defined as the concentration of a compound at which 50% of maximal inhibition is obtained. After reading the absorbance, survival curves were constructed and the values of IC50 were obtained with the GraphPad Prism software.

The next series concerns REH cells. The series is described as follows: MTT cytotoxicity assay, REH cell line. In kind it is cell-based, human. As to conditions: 48 h of treatment. As to the method: as §1, §2, §3, §4
(Tetrazolium dyes change colour on reduction, which living cells bring about.)

Series [2] deals with human leukemic Jurkat cells and HEK. The experiment in a line: Screening of compounds by cell viability assay (MTT) in leukemic cells. In kind it is cell-based. As to conditions: leukemic cells of Jurkat and HEK strains. As to the method: RPMI-1640 medium with 10% FBS (fetal bovine serum), 100 IU/mL penicillin, 100 µg/mL streptomycin and incubated at 37° C. and 5% CO2. Cytotoxicity assays were performed according to the method described in the literature (Pieters, R.; et al. In vitro drug sensitivity of cells from children with leukemia using the MTT assay with improved culture conditions. Blood, 1990, 76, 2327-2336; Pieters, R.; et al. Relation of cellular drug resistance to long-term clinical outcome in childhood acute lymphoblastic leukaemia. Lancet, 1991, 338, 399-403 e Kaspers, G. J.; et al. In vitro cellular drug resistance and prognosis in newly diagnosed childhood acute lymphoblastic leukemia. Blood, 1997, 90, 2723). Cells were resuspended at a concentration of 3.75 10^5 cells/mL in culture medium as described. Eighty microliters of this suspension were seeded into plates with 96 round-bottom wells, containing 20 microliters of different concentrations of compound or vehicle alone. Each treatment was done in triplicate. […] After incubating overnight, absorbance reading at 570 nm was carried out. The percentage of cells surviving the treatment were calculated relative to the number of surviving cells in the medium without addition of the compounds in question (“negative control”). […]

The subject of series [3] is healthy and phytohemagglutinin-stimulated lymphocytes. The series is described as follows: MTT assay on normal lymphocytes stimulated with phytohemagglutinin. In kind it is cell-based, human. The note with it: for Percentage of survival: 48 h, MTT. The procedure:
for the test of compound 07 against normal lymphocytes, blood from human donors was separated in a ficoll gradient and the mononuclear cells were cultivated at 200,000 cells/well, in 80 microliters of RPMI-1640 (containing 10% FBS, 100 IU/mL penicillin and 100 μg/mL streptomycin) and 20 microliters of phytohemagglutinin solution (Cultilab) in each well for stimulation of T lymphocytes. Compound 07 was added in serial dilutions (50%) from 300 to 1 nm. As a control, parallel tests were run with cells from leukemic Jurkat and REH cell lines, and experiments with colchicine with the same concentrations as compound 07. Cytotoxicity was assessed after 48 hours by the MTT method, as described Above.

Sequence of Trypanosoma cruzi cruzain (P25779 123-467): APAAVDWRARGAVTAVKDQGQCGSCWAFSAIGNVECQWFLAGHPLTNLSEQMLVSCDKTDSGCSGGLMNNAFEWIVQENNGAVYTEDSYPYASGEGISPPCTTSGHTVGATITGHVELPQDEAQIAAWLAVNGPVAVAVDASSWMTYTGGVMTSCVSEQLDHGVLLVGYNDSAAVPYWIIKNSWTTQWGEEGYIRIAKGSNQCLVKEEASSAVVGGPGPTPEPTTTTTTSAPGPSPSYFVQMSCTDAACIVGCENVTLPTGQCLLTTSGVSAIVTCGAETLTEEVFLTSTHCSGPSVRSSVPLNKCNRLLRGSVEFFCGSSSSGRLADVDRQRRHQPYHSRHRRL

As to `COc1cc(C(=O)NN=Cc2ccc(Br)cc2)cc(OC)c1OC` [Compound 02], the “inhibitory activity of cruzain” value in series [1] is “did not show inhibitory activity”. For the same compound, the results for the pIC50 with Jurkat cells and with REH cells were 7.50 and 7.47, respectively. In series [2], the antileukemic activity entry is “excellent antileukemic activity; also recorded: significant antileukemic activity”.

The compound `COc1cc(/C=N/NC(=O)c2cc(OC)c(OC)c(OC)c2)cc(I)c1O` [Compound 05] gave a melting point of 247 to 248 °C.

With `COc1cc(C(=O)NN=Cc2ccc(Cl)cc2)cc(OC)c1OC` [Compound 09], the pIC50 in the series on Jurkat cells is 6.69; with REH cells it was 6.48.

Turning to `COc1cc(C(=O)NN=Cc2ccc3c(c2)OCO3)cc(OC)c1OC` [Compound 10], the values for the pIC50 in the series on Jurkat cells and with REH cells were 6.81 and 6.69, respectively.

Take `COc1cc(C(=O)NN=Cc2ccccc2Cl)cc(OC)c1OC` [Compound 11]: the values for the pIC50 in the series on Jurkat cells and in the series with REH cells were 6.72 and 6.34, respectively.

Regarding `COc1cc(C(=O)NN=Cc2ccc(C)cc2)cc(OC)c1OC` [Compound 16], the negative-log IC50 (pIC50) in the series on Jurkat cells and in the series with REH cells was 7.15 in each case.

In turn, `COc1cc(C(=O)N/N=C/c2cnc[nH]2)cc(OC)c1OC` [Compound 17] came in with a melting point of 230 to 231 °C.

Consider `COc1cccc(OC)c1/C=N/NC(=O)c1cc(OC)c(OC)c(OC)c1` [Compound 21], for which the melting point is 245 to 246 °C.

With `COc1cc(C(=O)N/N=C/c2ccc(Br)cc2O)cc(OC)c1OC` [Compound 26], the melting point lay in the range of 206 to 208 °C.

For the compound `COc1cc(C(=O)N/N=C/c2ccc(Cl)c(C(F)(F)F)c2)cc(OC)c1OC` [Compound 29], the melting point lay in the range of 203 to 204 °C.

`COc1cc(C2OC(c3cc(OC)c(OC)c(OC)c3)=NN2C(C)=O)cc(Br)c1O` (stereo not drawn) [Compound 36]: the melting point was 177 to 179 °C.

Turning to `COc1cc(C2OC(c3cc(OC)c(OC)c(OC)c3)=NN2C(C)=O)ccc1O` (stereo not drawn) [Compound 37], the melting point is 170 to 172 °C.

In the case of `COc1cc(C2=NN(C(C)=O)C(c3cccc4ccccc34)O2)cc(OC)c1OC` (stereo not drawn) [Compound 38], the melting point lay within 189 to 192 °C.

Colchicine [reference compound]: the pIC50 was 8.11 in the series on Jurkat cells and 8.02 in the series with REH cells. In addition, the Percentage of survival in series [3] (4.6 nM) came out at 109%; in series [3] (9.38 nM), 110%; in series [3] (18.75 nM), 95%; in series [3] (37.5 nM), 84%; in series [3] (75 nM) it was 75%; in series [3] (150 nM), 69%. The Percentage of survival in series [3] (300 nM) stood at 63%. Besides, the “toxicity relative to the control / inhibition on the viability of lymphocytes T” value in series [3] (300 nM) came to 37%.
